# Experimental data: patent publication US8653049B2, “Normuramyl glycopeptide compounds” (priority 2008, dated 2014)
# Entries after “also recorded” stand apart in the source; their conditions may differ. Like-named read-outs stand apart in the source and are kept apart here.
# What was measured:
# [1] = rabbits, 3 rabbits per group
# Experimental: The test was conducted in an authorised laboratory, ITEST plus s.r.o., Bilé Vchýnice 10, 533 13 Vápno u Prelouce, Czech Republic, according to guide-lines CL 2005.
# Rabbits (New Zeeland albino, 4-6 kg, 3 animals per group) were used for testing.
# Liposomal preparations of muramyl glycopeptide derivatives were administered s.c. (100 nmol/kg). Empty liposomes were used as negative control and the liposomal as well as the free form of muramyl dipeptide (MDP) (25 μg/kg, corresponding to 50.7 nmol/kg) served as positive control. Temperature was measured in 1, 2, 3, 4,6 and 24 hour intervals.
# Empty liposomes were used as negative control; and liposomal as well as free muramyl dipeptide (MDP) (50.7 nmol/kg) served as positive control. B30-norAbu-MDP (MT01, structure on page 5) served as additional control. Temperature was measured in 1, 2, 3, 4, 6 and 24 h intervals. The preparation passed the test if the Sum of ΔTmax remained below 1.1° C. (3 rabbits per group)
# [2] = system: r-hsp90 (Candida albicans hsp90) specific IgG antibodies; assay: Proteoliposome vaccine against C. albicans hsp90: antibody (humoral) response, ELISA; type: in vivo, BALB/c mice; conditions: Experiment 12.2; liposomal compound (5%) + Ni-HSP90, boost day 14; FIG. 13
# Experimental: Proteoliposomes were prepared by coupling recombinant hsp90 antigen (r-hsp90, 6×HISTag) via a metal chelating lipid to liposomes containing muramyl glycopeptide derivatives as adjuvant component. BALB/c […] mice 4 to 5 weeks old (female 20±2 g, 5 animal per group) were immunized by the intradermal route either with 20 μg of free or liposomal r-hsp90 (volume of 60 μl) either with or without L18-norAbu-MDP and boosted 21 days later by the same composition of experimental vaccine. FCA was used as positive control r-hsp90. Liposomal vaccine composition 20 μg of rHSP90 antigen, 5% metallochelating lipid, 5% particular MT analogue, 90% phospolipids.
# Blood samples were collected from the tail vein into heparinised capillary PCV tubes. After centrifugation, the upper part of the tube, containing […] blood serum, was cut off, thrown into […] diluting solution and thoroughly shaken. Thus, a basic dilution of 1:33 was obtained. The pre-diluted sera were kept at −20° C. Blood samples were collected before the first immunization, 2 weeks thereafter and subsequently at weekly intervals up to the 4th week after the second immunisation. Specific IgG antibodies in blood serum samples were determined by the standard indirect ELISA procedure. The data obtained were processed statistically using the non-parametric Mann-Whitney U-test.
# Proteoliposomes with muramyl glycopeptide derivatives were prepared as described above, but the boost was carried out already after 14 days. The liposomal vaccine composition was as for Experiment Set 1: 20 μg of rHSP90 antigen, 5% metallochelating lipid, 5% particular MT analogue, 90% phospolipids.
# Controls: Aluminum hydroxide (AlOH) and Freund complete adjuvans (FCA) were used as positive controls. PBS with empty liposomes was used as negative control (control). Humoral response was tested at day 14 after vaccination (post priming) and at day 20 after vaccination (post booster). Antibody titres were wer assayed by ELISA.
# [3] = system: NK sensitive K562 cell line; assay: NK cell cytotoxicity of human PBMC, 51Cr-release against K562; type: cell-based; conditions: range 0.1 μM-100 μM; FIG. 28
# Experimental: Ex vivo effects of test compounds on NK cells were evaluated on human peripheral blood mononuclear cells (PBMC). The NK cell cytotoxicity of healthy donors in the presence or absence of test compounds was measured in standard 4 hrs ^51Cr-release assay against NK sensitive K562 cell line in effector (PBMC) to target (K562) ratio 16:1. Test compounds were added at a concentration of 10^−7 mol/ml.
# Testing of compounds 23, 24, 32, 33, 40 and 41 for their capacity to induce cell-mediated cytotoxicity of human eripheral blood mononuclear cells (PBMCs) is shown in FIGS. 27 and 28. All donors were healthy. […] The cytotoxicity of untreated controls (30.5%) was renormalized to 100%.
# [4] = system: GM-CFC progenitors in bone marrow; assay: GM-CFC recovery, test compounds before sub-lethal irradiation; type: in vivo, ICR/CD-1 mice; conditions: s.c. 100 nmol 24 h before 6 Gy, day 13; FIGS. 33-35
# Experimental: (§1) Institite of Cancer Research (ICR/CD-1) mice (female, age of 3 months, 3-4 per group) were stimulated by s.c. administration of test compounds (volume of 200 μl, 100 nmol per dose) 24 h before sublethal γ-irradiation (6 Gy, ^60Co γray source Chisostat, Chirana Ltd., Czech Republic, at a dose of 0.285 Gy/min.). Mice were sacrified at day 13 and recovery of GM-CFC in femour was assayed by counting of colonies (CFC) formed after cultivation in medium. Non-irradiated mice were used as control for normal GM-CFC count in femour. PBS and empty liposomes were used as controls for spontaneous recovery. Liposomal MDP was used as reference standard.
# (§2) The following parameters of hemopoiesis were evaluated: • a) Blood leukocyte counts and bone marrow cellularity. Blood leukocytes (samples of blood drawn from an incision of the tail vein) and nucleated cell elements of the femoral bone marrow (femoral diaphyses flushed with saline) were estimated by means of Coulter Counter (Model ZN, Coulter Electronics). • b) Colony-forming cells in spleen. Endogenous spleen colony-forming units (E-CFUs) were measured on day 9 post the whole-body irradiation with 6.5 Gy (5 mice per group) according to Till and McCulloch. • c) GM-CFC progenitors in bone marrow. Femoral bone marrow cells were obtained from mice by flushing the femour with sterile IMDM medium. Harvested cells were calculated and diluted to 1.5×10^5 cells/ml and plated in triplicate in a semisolid environment created by plasma clot (Iscovess modification of Dulbecco's medium, 20% of fetal calf serum, 10% of colony-stimulating factor, 10% of citrate plasma, and CaCl2 1.5 mg/ml). The cultures were incubated for 7 days at 37° C. in 5% CO2. Colonies of at least 50 cells were scored at 40× magnification.
# Statistical significance between individual experimental groups of mice in hemopoietic parameters was calculated by one-way analysis of variance. The Newman-Keuls test for comparison of all pairs of columns and the Dunnett test for comparison of all columns with the control column were used in the analysis.
# [5] = system: GM-CFC progenitors in bone marrow; assay: GM-CFC recovery, test compounds after sub-lethal irradiation; type: in vivo, ICR/CD-1 mice; conditions: s.c. 100 nmol 24 h after 6 Gy; FIG. 36
# Experimental: as §1, §2
# The method is exactly as described above except that the test compounds (volume of 200 μl, 100 nmol per dose) were administered 24 h after sublethal γ-irradiation (6 Gy).
# Salmonella enteritidis = assay: Stimulation of innate immunity against Salmonella Enteritidis; conditions: liposomal, 20 nmol per dose p.o. 72 and 24 h before infection (LD50); 5 mice
# [6] = system: Friend leukemia virus (FLV); assay: Friend leukemia virus infection: survival, TER-119+ cells, spleen; conditions: for clonal expansion of TER-119+ erythroleukaemia cells in spleen / spleen size (weight): day 16; for clonal expansion of TER-119+ erythroleukaemia cells in spleen: FIG. 24; for spleen size (weight): FIG. 25
# [7] = system: NK-sensitive YAC1 target cells; assay: NK cell-mediated cytotoxicity of spleen mononuclear cells, 51Cr-release against YAC1; conditions: FLV-inoculated mice, day 16, 18 h incubation with YAC1; FIG. 26
# [8] = system: myelin basic protein induced EAE; assay: Experimental allergic encephalomyelitis (EAE), Th1 adjuvant activity; type: in vivo, guinea pigs; conditions: for Positive animals (%) (incidence of EAE): 50 μg myelin basic protein + 1 mg test compound in FIA, footpads, up to day 21, FCA positive control
# bone-marrow cells = assay: Restoration of bone-marrow proliferation in azathioprine-suppressed mice; type: in vivo, CBA/J mice; parameters: key: +: restoration under the level of intact bone-marrow response; ++: restoration above the level of intact bone-marrow response; conditions: two i.v. doses of 200 nmol 30 and 6 h before oral azathioprine 5 mg per mouse; bone marrow 66 h after
# Experimental: CBA/J male mice 8 weeks old, weighing 18-20 g were administered two i.v. doses of 200 nmol test substance per mouse 30 and 6 h prior to oral application of azathioprine (Imuran Wellcome, 5 mg per mouse in a volume of 0.5 ml distilled water). Bone marrow (lavage of femurs) was sampled 66 h after the application of azathioprine. Pooled suspensions of bone-marrow cells from 3 mice were cultivated in RPMI-1640 medium with 5% of fetal bovine serum (both from Sigma) at a concentration of 2×10^5 cells/0.2 ml either without mitogen (spontaneous proliferation) or in the presence of T (phytohemagglutinin, PHA Murex, 50 μg/ml; concanavalin A, Con A Sigma, 1, 2.5 or 5 μg/ml) or B (lipopolysaccharide, LPS E. coli O55 Difco, 5 μg/ml) mitogens for 48 h at 37° C. in 5% CO2. Proliferative activity was measured by incorporation of 3H-thymidine (1 μCi/well) and expressed as stimulation index SI=mean cpm cultures with mitogen/mean cpm controls without mitogen. Statistical significance of stimulation was evaluated by the Student's t test.
# [9] = liposomal preparations s.c. 100 nmol/kg, passes if below 1.1° C.
SMILES,"+ΔTmax (Sum of ΔTmax) [1, 9]",dose response of NK cell activity [3],Day 6 Intest.: clear/infected/dead (Salmonella enteritidis),Day 6 Liver: clear/infected/dead (Salmonella enteritidis),Day 6 Lungs: clear/infected/dead (Salmonella enteritidis),Day 6 Spleen: clear/infected/dead (Salmonella enteritidis),Day 12 Intest.: clear/infected/dead (Salmonella enteritidis),Day 12 Liver: clear/infected/dead (Salmonella enteritidis),Day 12 Lungs: clear/infected/dead (Salmonella enteritidis),Day 12 Spleen: clear/infected/dead (Salmonella enteritidis),clonal expansion of TER-119+ erythroleukaemia cells in spleen [6],spleen size (weight) [6],Positive animals (%) (incidence of EAE) [8],Restoration of BM Proliferation in Immunosuppressive Therapy (bone-marrow cells),other results
"CCCCCCCCCCCCCCCCCC(=O)NCCCC[C@H](NC(=O)CC[C@@H](NC(=O)[C@H](CC)NC(=O)CO[C@H]1[C@H](O[C@@H]2O[C@H](CO)[C@@H](O)[C@H](O)[C@H]2NC(C)=O)[C@@H](CO)OC(O)[C@@H]1NC(C)=O)C(N)=O)C(=O)O (stereo partly drawn) [Compound 40, N-[2-O-(2-Acetamido-2-deoxy-βD-glucopyranosyl-(1→4)-2-acetamido-2,3-dideoxy-D-glucopyranose-3-yl)-glycoloyl]-L-α-aminobutanoyl-D-isoglutaminyl-L-lysine(stearoyl)]",0.6 °C,negative dose response,4/1/0,4/1/0,4/1/0,5/0/0,0/2/3,1/1/3,1/1/3,1/1/3,"dose-dependent, positive effect",spleen size slightly lower than the control,,,antibody response to r-hsp90 proteoliposomes [2]: strong and comparable to AlOH; GM-CFC progenitor cells in bone marrow [4]: acceptable performance; GM-CFC progenitor cells in bone marrow [5]: strongest performers; also recorded: strongest effect; also recorded: one of the best effects; NK cell activity (cell-mediated cytotoxicity of SMCs) [7]: stimulate NK cell functional activity
"CCCCCCCCCCCCCCC(CCCCCCCCCCCCCC)C(=O)NCCCC[C@H](NC(=O)CC[C@@H](NC(=O)[C@H](CC)NC(=O)CO[C@H]1[C@H](O[C@@H]2O[C@H](CO)[C@@H](O)[C@H](O)[C@H]2NC(C)=O)[C@@H](CO)OC(O)[C@@H]1NC(C)=O)C(N)=O)C(=O)O (stereo partly drawn) [Compound 41, N-[2-O-(2-Acetamido-2-deoxy-β-D-glucopyranosyl-(1→4)-2-acetamido-2,3-dideoxy-D-glucopyranose-3-yl)-glycoloyl]-L-α-aminobutanoyl-D-isoglutaminyl-L-lysine(2-tetradecylhexadecanoyl)]",0.8 °C,negative dose response,2/3/0,2/3/0,4/1/0,2/3/0,1/2/2,2/1/2,2/1/2,2/1/2,pronounced opposite effect,increased spleen size,,,"survival, late phase (days 55 and 59), long-term ([6]; 10 μmol i.p., non-liposomal, control 0%, FIG. 23): ensure long-term survival; survival, early phase (day 43) ([6]; 10 μmol i.p., non-liposomal, saline control 82%, FIG. 23): survival rate worse than control"
"CC(=O)N[C@H]1[C@H](O[C@H]2[C@H](O[C@H](C)C(=O)N[C@@H](C)C(=O)N[C@H](CCC(=O)O)C(N)=O)[C@@H](NC(C)=O)C(O)O[C@@H]2CO)O[C@H](CO)[C@@H](O)[C@@H]1O (stereo partly drawn) [GMDP, glucosaminylmuramyl dipeptide]",,,,,,,,,,,,,65%,++,
"CC(=O)N[C@@H]1[C@@H](O[C@H](C)C(=O)N[C@@H](C)C(=O)N[C@H](CCC(=O)O)C(N)=O)[C@H](O)[C@@H](CO)O[C@H]1O [MDP, muramyldipeptide]",,,,,,,,,,,,,58%,+,"+ΔTmax (Sum of ΔTmax) ([1]; MDP positive control 25 μg/kg (50.7 nmol/kg), liposomal or free): 2.9 °C"
CC[C@H](NC(=O)CO[C@H]1[C@H](O[C@@H]2O[C@H](CO)[C@@H](O)[C@H](O)[C@H]2NC(C)=O)[C@@H](CO)OC(O)[C@@H]1NC(C)=O)C(=O)N[C@H](CCC(=O)O)C(N)=O (stereo partly drawn) [norAbu-GMDP],,,,,,,,,,,,,90%,++,"Th1 stimulation (EAE) ([8]; guinea pigs sensitized with bovine MBP in IFA + compound, FIG. 31): superior to MDP and GMDP as Th1 adjuvants"
CCC(NC(=O)COC1C(O)C(CO)OC(O)C1NC(C)=O)C(=O)NC(CCC(=O)O)C(N)=O (stereo not drawn) [norAbu-MDP],,,,,,,,,,,,,,+,
